In patent US20130324542A1, “[1,2,4]TRIAZOLO[4,3-B][1,2,4]TRIAZINE COMPOUNDS, PREPARATION METHOD AND USE THEREOF” (SHANGHAI INSTITUTE OF MATERIA MEDICA, CHINESE ACADEMY OF …, priority 2010, published 2013) one finds inhibition and IC50 data, which are given here for 16 compounds.

As a reminder, the IC50 is the point on the concentration scale where inhibition reaches its midpoint. A high value points to lower potency.

For one assay, the system named is NIH3T3 background cells. In words: Cell proliferation, SRB assay, NIH3T3 background cells as control. In kind it is cell-based. The conditions noted are these: Mus musculus, NIH3T3, 72 h, read-out: inhibition rate (%) on proliferation of NIH3T3 background cells. The protocol: NIH3T3/TPR-Met cells in the logarithmic growth phase and NIH3T3 background cells were seeded in a 96-well microcuture plate at 90111_, per well and cultivated overnight, followed by addition of 104 of the compound at different concentrations. Three concentrations were set, and for each concentration, the test was carried out in triplicate wells. 72 h later, the culture medium was removed. The residue was fixed by precooled 10% TCA at 4° C. for 1 h, washed by distilled water for 5 times and dried at room temperature. After that, 4 mg/mL of sulforodamine B (SRB) in 1% glacial acetic acid was added to each well (1004 per well) for staining at room temperature for 15 min. The excess dye was removed by washed with 1% glacial acetic acid for 5 times and dried in air. At last, 150 μL of Tris-HCL solution (10 mM Tris, pH 10.0) was added to each well. OD values were measured on a multi-well spectrophotometer at […].
A general note: Sulforhodamine B stains cellular protein and so reports cell mass.

Another assay has as its target c-Met tyrosine kinase (Homo sapiens, UniProt P08581). In words: c-Met kinase activity on molecular level (ELISA, Poly(Glu,Tyr)4:1 substrate). In kind it is biochemical. Conditions: ATP 5 μM, 37° C., 1 h. The protocol: Poly(Glu, Tyr)4:1 as an enzyme substrate was diluted by potassium ion-free PBS (10 mM, sodium phosphate buffer, 150 mM NaCl, pH7.2-7.4) into a solution of 20 μg/ml. […] After the liquid in wells was removed, the plate was washed three time by T-PBS (PBS solution containing 0.1% Tween-20) at 200 μl/well, 5 min for each time. The ELISA plate was then dried in an oven at 37° C. for 1-2 h.
Each well was added with 50 μL of ATP solution diluted by reaction buffer (50 mM HEPES pH 7.4, 50 mM MgCl2, 0.5 mM MnCl2, 0.2 mM Na3VO4, 1 mM DTT) at a final concentration of 5 μM. Compound diluted by 1% DMSO into a suitable concentration was added at 10 μl/well and then c-Met tyrosine kinase protein diluted by 40 μl of reaction buffer was added. The plate was placed on a shaking table (100 rpm) at 37° C. and incubated for 1 h, and then washed three times by T-PBS. For each assay, triplicate wells without enzyme were used as blank control and wells having the corresponding DMSO concentration without compound were used as negative control. Primary antibody PY99 (p-Tyr (PY99), Cell Signaling Technology, 1:1000 diluted in 5 mg/mL BSA T-PBS) was added at 100 μl/well. The plate was then placed on a shaking table at 37° C. and incubated for 0.5 h, and washed by T-PBS. Secondary antibody horseradish peroxidase-conjugated goat anti-mouse IgG (1:2000 diluted in 5 mg/mL BSA T-PBS) was added at 100 μl/well. The plate was then placed on a shaking table at 37° C. for 0.5 h and washed three times by T-PBS. 2 mg/mL of OPD developer (diluted by a 0.1M citric acid-sodium citrate buffer (pH=5.4) containing 0.03% of H2O2) was added at 100 μl/well, and the plate was kept in dark at 25° C. for 1-10 min. OPD was ultrasonically dissolved and the developer solution was prepared just before use. 2 M of H2SO4 was added at 50 μl/well to stop the reaction. The plate was read using a wavelength regulated multi-well spectrophotometer (SPECTRA MAX 190) at 490 nm.
The inhibition rate was calculated according to the following equation:
Inhibition rate (%)=(1−(ODcompound−ODblank)/(ODnegative−ODblank))×100%
IC50 value was calculated through a four-parameter fit according to the inhibition curve.
A general note: In an ELISA, binding on a coated surface is turned into a signal by an enzyme label.

The test system of a further assay is NIH3T3/TPR-Met cells. Description: Cell proliferation mediated by c-Met, SRB assay, NIH3T3/TPR-Met cells. Conditions: Mus musculus, NIH3T3, 72 h, read-out: inhibition rate (%) on proliferation of NIH3T3/TPR-Met cells. In kind it is cell-based. The procedure: Three concentrations were set, and for each concentration, the test was carried out in triplicate wells. 72 h later, the culture medium was removed. The residue was fixed by precooled 10% TCA at 4° C. for 1 h, washed by distilled water for 5 times and dried at room temperature. […] The excess dye was removed by washed with 1% glacial acetic acid for 5 times and dried in air. At last, 150 μL of Tris-HCL solution (10 mM Tris, pH 10.0) was added to each well.

Chain of c-Met tyrosine kinase (P08581 25-1390): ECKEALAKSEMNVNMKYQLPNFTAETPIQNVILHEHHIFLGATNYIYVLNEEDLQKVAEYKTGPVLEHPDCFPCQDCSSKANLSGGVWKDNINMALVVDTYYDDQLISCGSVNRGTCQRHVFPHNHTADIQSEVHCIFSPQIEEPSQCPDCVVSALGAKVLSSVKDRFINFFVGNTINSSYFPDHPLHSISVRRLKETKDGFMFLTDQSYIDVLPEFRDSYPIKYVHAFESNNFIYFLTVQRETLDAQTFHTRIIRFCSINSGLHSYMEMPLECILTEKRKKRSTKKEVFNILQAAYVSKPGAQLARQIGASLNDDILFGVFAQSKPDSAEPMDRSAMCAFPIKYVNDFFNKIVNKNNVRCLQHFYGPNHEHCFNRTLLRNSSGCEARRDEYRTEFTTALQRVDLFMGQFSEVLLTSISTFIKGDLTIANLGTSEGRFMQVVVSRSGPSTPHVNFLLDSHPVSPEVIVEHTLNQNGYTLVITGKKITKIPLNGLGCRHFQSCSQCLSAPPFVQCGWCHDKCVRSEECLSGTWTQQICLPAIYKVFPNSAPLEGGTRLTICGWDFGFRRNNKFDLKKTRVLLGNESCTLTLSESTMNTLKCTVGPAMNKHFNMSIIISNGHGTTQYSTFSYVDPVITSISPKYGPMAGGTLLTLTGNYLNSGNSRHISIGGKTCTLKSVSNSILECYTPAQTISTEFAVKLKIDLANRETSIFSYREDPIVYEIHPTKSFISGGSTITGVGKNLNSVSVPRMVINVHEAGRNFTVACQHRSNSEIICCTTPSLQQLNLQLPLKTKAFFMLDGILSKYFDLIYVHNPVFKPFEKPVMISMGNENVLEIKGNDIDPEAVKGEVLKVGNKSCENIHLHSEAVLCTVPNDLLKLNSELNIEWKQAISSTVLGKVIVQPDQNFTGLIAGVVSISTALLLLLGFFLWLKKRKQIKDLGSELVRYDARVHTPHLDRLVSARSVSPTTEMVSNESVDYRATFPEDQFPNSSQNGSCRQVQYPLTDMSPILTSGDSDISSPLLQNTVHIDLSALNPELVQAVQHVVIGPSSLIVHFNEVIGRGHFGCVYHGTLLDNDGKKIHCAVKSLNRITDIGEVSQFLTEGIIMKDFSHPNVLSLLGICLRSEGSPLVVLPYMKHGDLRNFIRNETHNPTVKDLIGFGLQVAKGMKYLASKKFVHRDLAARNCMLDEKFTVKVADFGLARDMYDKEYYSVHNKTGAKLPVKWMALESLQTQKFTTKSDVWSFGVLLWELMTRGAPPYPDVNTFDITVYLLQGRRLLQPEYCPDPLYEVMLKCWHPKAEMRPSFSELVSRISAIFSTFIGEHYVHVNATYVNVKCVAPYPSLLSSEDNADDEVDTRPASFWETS

`c1ccc(COc2ccc(-c3cnc4nnc(Cc5ccc6ncccc6c5)n4n3)cc2)cc1` [Compound I-2, 3-(6-quinolylmethyl)-6-(4-benzyloxyphenyl)-[1,2,4]triazolo[4,3-b][1,2,4]triazine]: in the assay on NIH3T3 background cells, the inhibition at 1 µM amounted to 16.2%, the inhibition at 10 µM is 28.4% and the inhibition at 50 µM was found to be 33.1%.

`CCCn1cc(-c2cnc3nnc(Cc4c[nH]c5ccccc45)n3n2)cn1` [Compound I-9, 3-(3-indolylmethyl)-6-[(1-propyl)-4-pyrazolyl]-[1,2,4]triazolo[4,3-b][1,2,4]triazine] had an IC50 on c-Met tyrosine kinase of 223 nM. In the assay on NIH3T3/TPR-Met cells, the inhibition at 1 µM was found to be 5%, the inhibition at 10 µM was found to be 9.4% and the inhibition at 50 µM was determined as 67.5%. Besides, in the assay with NIH3T3 background cells, the inhibition at 1 µM worked out at 17.8%, the inhibition at 10 µM is 22.7% and the inhibition at 50 µM is 37.3%.

For `Brc1ccc(-c2cnc3nnc(Cc4ccc5ncccc5c4)n3n2)cc1` [Compound I-17, 3-(6-quinolylmethyl)-6-(4-bromophenyl)-[1,2, 4]triazolo[4,3-b][1,2,4]triazine], in the assay on NIH3T3 background cells, the inhibition at 1 µM was found to be 24.9%, the inhibition at 10 µM turned out to be 35.9% and the inhibition at 50 µM came to 34.9%.

In the case of `c1ccc(COc2ccc(-c3cnc4nnc(Cc5c[nH]c6ccccc56)n4n3)cc2)cc1` [Compound I-18, 3-(3-indolylmethyl)-6-(4-bnzyloxyphenyl)-[1,2,4]triazolo[4,3-b][1,2,4]triazine], in the assay with NIH3T3 background cells, the inhibition at 1 µM came out at 17.5%, the inhibition at 10 µM was 20.8% and the inhibition at 50 µM worked out at 28.7%.

`CC(C)(C)OC(=O)N1CCC(n2cc(-c3cnc4nnc(C(F)(F)c5ccc6ncccc6c5)n4n3)cn2)CC1` [Compound I-20, 3-[(6-quinolyl)difluoromethyl]-6-[1-(1-tert-butoxycarbonyl-4-piperidyl)-4-pyrazolyl]-[1,2,4] triazolo[4,3-b][1,2,4]triazine] displayed an IC50 against c-Met tyrosine kinase of 7.9 nM. In the assay with NIH3T3/TPR-Met cells, the inhibition at 1 µM worked out at 81.2%, the inhibition at 10 µM stood at 87.8% and the inhibition at 50 µM turned out to be 86.5%. Besides, in the assay with NIH3T3 background cells, the inhibition at 1 µM turned out to be 18.8%, the inhibition at 10 µM was determined as 25.8% and the inhibition at 50 µM is 38.6%.

For the compound `FC(F)(c1ccc2ncccc2c1)c1nnc2ncc(-c3cnn(C4CCNCC4)c3)nn12` [Compound I-21, 3-[(6-quinolyl)difluoromethyl]-6-[1-(4-piperidyl)-4-pyrazolyl]-[1,2,4]triazolo[4,3-b][1,2,4] triazine], the IC50 on c-Met tyrosine kinase came to 81.6 nM. Further, in the assay on NIH3T3/TPR-Met cells, the inhibition at 1 µM came to 6%, the inhibition at 10 µM was determined as 76.8% and the inhibition at 50 µM stood at 85.1%. Moreover, in the assay with NIH3T3 background cells, the inhibition at 1 µM stood at 12%, the inhibition at 10 µM stood at 25.5% and the inhibition at 50 µM worked out at 28.4%.

As for `FC(F)(c1ccc2ncccc2c1)c1nnc2ncc(-c3ccc(OCc4ccccc4)cc3)nn12` [Compound I-24, 3-[(6-quinolyl)difluoromethyl]-6-(4-benzyloxy-phenyl)-[1,2,4]triazolo[4,3-b][1,2,4]triazine], it took 2.9 nM to reach half-maximal inhibition against c-Met tyrosine kinase (IC50). For the same compound, in the assay on NIH3T3/TPR-Met cells, the inhibition at 1 µM was found to be 83.5%, the inhibition at 10 µM amounted to 87.7% and the inhibition at 50 µM came out at 87.2%. In addition, in the assay with NIH3T3 background cells, the inhibition at 1 µM was 16.9%, the inhibition at 10 µM was found to be 23.6% and the inhibition at 50 µM was determined as 32.8%.

Regarding `COc1ccc2c(OCc3nnc4ncc(-c5ccc(Cl)cc5)nn34)ccnc2c1` [II-2, 3-[(7-methoxy-4-quinolyl)oxymethyl]-6-(4-chlorophenyl)-[1,2,4]triazolo[4,3-b][1,2,4]triazine], on c-Met tyrosine kinase, the IC50 was found to be 0.37 nM. Besides, the figures for the inhibition at 10 µM in the assay with NIH3T3/TPR-Met cells and with NIH3T3 background cells were 79% and 21%, respectively.

For the compound `COc1ccc2c(OCc3nnc4ncc(-c5ccc(Br)cc5)nn34)ccnc2c1` [II-3, 3-[(7-methoxy-4-quinolyl)oxymethyl]-6-(4-bromophenyl)-[1,2,4]triazolo[4,3-b][1,2,4]triazine], the IC50 against c-Met tyrosine kinase was determined as 0.23 nM. Also, the results for the inhibition at 10 µM with NIH3T3/TPR-Met cells and in the assay on NIH3T3 background cells were 77.3% and 33.8%, respectively.

At c-Met tyrosine kinase, `COc1ccc2c(OCc3nnc4ncc(-c5cccs5)nn34)ccnc2c1` [II-4, 3-[(7-methoxy-4-quinolyl)oxymethyl]-6-(2-thienyl)-[1,2,4]triazolo[4,3-b][1,2,4]triazine] gave an IC50 of 20.1 nM. Moreover, the inhibition at 10 µM in the assay on NIH3T3/TPR-Met cells came to 80.6%; in the assay with NIH3T3 background cells, 0%.

`COC(=O)c1ccc(-c2cnc3nnc(COc4ccnc5cc(OC)ccc45)n3n2)cc1` [II-5, 3-[(7-methoxy-4-quinolyl)oxymethyl]-6-(4-methoxyformylphenyl)-[1,2,4]triazolo[4,3-b][1,2, 4]triazine] had a 50% inhibitory concentration (IC50) against c-Met tyrosine kinase of 0.78 nM. Moreover, the inhibition at 10 µM came out at 79.2% in the assay on NIH3T3/TPR-Met cells and 6.2% with NIH3T3 background cells.

In turn, `COc1ccc2c(OCc3nnc4ncc(-c5ccc([N+](=O)[O-])cc5)nn34)ccnc2c1` [II-6, 3-[(7-methoxy-4-quinolyl)oxymethyl]-6-(4-nitrophenyl)-[1,2,4]triazolo[4,3-b][1,2,4]triazine] showed an IC50 against c-Met tyrosine kinase of 0.56 nM. In the assay with NIH3T3/TPR-Met cells, the inhibition at 1 µM was found to be 78.6%, the inhibition at 10 µM was 82.4% and the inhibition at 50 µM amounted to 82.3%. In addition, in the assay with NIH3T3 background cells, the inhibition at 1 µM is 46.2%, the inhibition at 10 µM came to 53.3% and the inhibition at 50 µM was determined as 50.6%.

The compound `COc1ccc2c(OCc3nnc4ncc(-c5ccc(OCc6ccccc6)cc5)nn34)ccnc2c1` [II-8, 3-[(7-methoxy-4-quinolyl)oxymethyl]-6-(4-benzyloxyphenyl)-[1,2,4]triazolo[4,3-b][1,2,4] triazine] gave an IC50 against c-Met tyrosine kinase of 32.4 nM. For the same compound, the inhibition at 10 µM with NIH3T3/TPR-Met cells worked out at 81.2%; in the assay on NIH3T3 background cells, 7.5%.

`COc1cc2nccc(OCc3nnc4ncc(-c5ccc(F)cc5)nn34)c2cc1OC` [II-14, 3-[(6,7-dimethoxy-4-quinolyl)oxymethyl]-6-(4-fluorophenyl)-[1,2,4]triazolo[4,3-b][1,2,4] triazine] came in with an IC50 against c-Met tyrosine kinase of 3 nM. Further, the inhibition at 10 µM amounted to 75.6% in the assay on NIH3T3/TPR-Met cells and 0% with NIH3T3 background cells.

Compound `COc1cc2nccc(OCc3nnc4ncc(-c5ccc(Cl)cc5)nn34)c2cc1OC` [II-15, 3-[(6,7-dimethoxy-4-quinolyl)oxymethyl]-6-(4-chlorophenyl)-[1,2,4]triazolo[4,3-b][1,2,4] triazine] yielded an IC50 on c-Met tyrosine kinase of 182 nM. Besides, the results for the inhibition at 10 µM in the assay on NIH3T3/TPR-Met cells and in the assay with NIH3T3 background cells were 22.6% and 0%, respectively.

In turn, `COc1cc2nccc(OCc3nnc4ncc(-c5ccc(Br)cc5)nn34)c2cc1OC` [II-16, 3-[(6,7-dimethoxy-4-quinolyl)oxymethyl]-6-(4-bromophenyl)-[1,2,4]triazolo[4,3-b][1,2,4] triazine] yielded an IC50 against c-Met tyrosine kinase of 0.2 nM. Also, the inhibition at 10 µM in the assay on NIH3T3/TPR-Met cells stood at 87.9%; with NIH3T3 background cells, 56.2%.
